In patent US5496841A, “Anti-neoplastic, anti-viral and ribonucleotide reductase activity affecting pharmaceutical compositions and method of treatment” (University of Florida Research Foundation, Inc., priority 1995, dated 1996):
Where two headings read alike, the source gives them in different places.

Columns and labels:
[1] = test system: Murine L1210 leukemia cells; test: L1210 leukemia cell growth inhibition; type: cell-based; conditions: for anti-leukemic activity (in words): L1210; for IC50: L1210, 48 hr, read-out: Antileukemic Activity (IC50, 48 hr); for % Control, L1210 growth: Compound II 10 μM
[2] = test system: herpes simplex I, KOS strain; test: Inhibition of herpes simplex virus replication in CV-1 cells (plaque assay); type: cell-based; conditions: for anti-herpetic activity (in words): herpes simplex I; for % Control, Herpes replication: Compound II 100 μM
[3] = test system: vesicular stomatitis virus; test: microbe, parasite or virus in culture; type: cell-based
[4] = Iron formation (binding) constant; type: physicochemical; conditions: estimated iron binding constant
Description: When the compounds were ranked according to their estimated iron binding constants (Table I), the order generally paralleled both the anti-leukemicand anti-herpetic activities of the compounds. […] Furthermore, the effects of the ligands could be prevented by addition of ferric chloride, supporting the idea that iron chelation is the source of activity.

[5] = Partition between n-octanol and phosphate buffered saline; type: physicochemical; conditions: PBS pH 7.40 / n-octanol; for logD at 12 h: pH 7.4, 27° C., read-out: Conc. n-Octanol / Conc. PBS (partition coefficient) (converted)
Experimental: The partition equilibrium values for octanol and phosphate buffered saline were determined for certain of the test compounds. The compounds were added in nitrogen saturated methanol at the same concentration to three acid washed test tubes and the alcohol evaporated leaving a thin film of compounds coating the interior of the tube. Next, 5 ml each of degassed phosphate buffered saline (pH 7.4) and n-octanol were added. The tubes were sealed with Teflon caps under argon and rotated at 6 rpm at 27° C. for 12 hours. […] Absorbance values were compared to Beer's Lambert's plots generated for each compound.

Plasmodium falciparum = test: In vitro growth of Plasmodium falciparum (candle jar technique); type: cell-based
Experimental: The anti-malarial activity of the compounds listed in Table IV were determined using the method of Scheibel et al, Mol. Pharmacol., 20, pp. 218-223 (1981).
In this study, Plasmodium falciparum were grown in petri dishes using the conventional candle jar technique (Jensen, J. B., and W. Trager. Plasmodium falciparum in culture; use of outdated erythrocytes and description of the candle jar method. J. Parasitol. Vol. 63, pp. 883-886 (1977)). Parasites were grown for 24 hours in 1.5 ml petri dishes in a candle jar before exposure to the chelators of interest. The Plasmodium falciparum were next exposed to various concentrations of the ligands, and ED50 values determined after two and three days of exposure.

[6] = prior art statement; cited from earlier work
CV-1 monkey kidney cells = test: Toxicity to resting monkey kidney cell monolayers; type: cell-based; conditions: 100 μM, 24 hours
L1210 cells = conditions: Porter et al, read-out: 50% growth-inhibitory dose; cited from earlier work
[7] = test system: herpes virus (same herpes strain); conditions: vero monkey kidney cell line, DeClercq, read-out: IC50 anti-herpetic; cited from earlier work
[8] = CV-1, read-out: Antiviral Activity Herpes simplex I (IC50)
[9] = Vesicular stomatitis virus, CV-1, read-out: Antiviral Activity Vesicular stomatitis (IC50)
[10] = CV-1 cells, read-out: Antiviral Activity Herpes simplex I (IC50)
[11] = 48 h, exposure for 2 days, read-out: Concentration required to reduce in vitro growth of P. falciparum 50% (ED50), Day 2
[12] = 72 h, exposure for 3 days, read-out: Concentration required to reduce in vitro growth of P. falciparum 50% (ED50), Day 3

Structure (SMILES): NCCCCN(CCCN)Cc1ccccc1
- anti-leukemic activity (in words) [1]: virtually inactive
- IC50 ([1]; Mus musculus): 4000 µM
- IC50 [2, 8]: 1000 µM
- anti-herpetic activity (in words) [2]: virtually inactive
- IC50 [3, 9]: 1000 µM
- Formation Constant [4]: 0 moles/1

Structure (SMILES): C[C@H]1OC(c2ccccc2O)=N[C@@H]1C(=O)N(CCCCNC(=O)c1cccc(O)c1O)CCCNC(=O)c1cccc(O)c1O (relative stereo) [Parabactin, N-[3-(2,3-dihydroxybenzamido)propyl]-N-[4-(2,3-dihydroxybenzamino)-butyryl]-2-(2-hydroxyphenyl)trans-5-methyl-oxazoline-4-carboxamide]
- IC50 ([1]; Mus musculus): 2 µM
- times more active as an antineoplastic than DHBA ([1]; ratio vs DHBA): 10^3
- IC50 [2, 10]: 0.4 µM
- Gt ° (G° transfer) [5]: -2.06 K cal M-I
- logD at 12 h [5]: 1.51
- IC50 (Plasmodium falciparum; [11]): 2.6 µM
- IC50 (Plasmodium falciparum; [12]): 2.3 µM
- iron formation constant of 1:1 metal complex [6]: ~10^48 moles/l

Structure (SMILES): C[C@H]1OC(c2cccc(O)c2O)=N[C@@H]1C(=O)NCCCN(CCCNC(=O)c1cccc(O)c1O)C(=O)[C@H]1N=C(c2cccc(O)c2O)O[C@@H]1C (relative stereo) [Vibrobactin, N-[3-(2,3-(dihydrozybenzamido)propyl]-1,3-bis(2,3-dihydroxyphenyl)-trans-5-methyl-2-oxazoline-4-carbonamido]propane]
- IC50 ([1]; Mus musculus): 2 µM
- IC50 (Plasmodium falciparum; [11]): 4.5 µM
- IC50 (Plasmodium falciparum; [12]): 1.8 µM

Structure (SMILES): O=C(NCCCCNCCCNC(=O)c1cccc(O)c1O)c1cccc(O)c1O [Compound II, N^1,N^8-bis(2,3-dihydroxybenzoyl)-spermidine]
- % Control, L1210 growth ([1]; FeCl3 0 μM): 23 % Control
- % Control, L1210 growth ([1]; FeCl3 4 μM): 64 % Control
- % Control, L1210 growth ([1]; FeCl3 8 μM): 96 % Control
- % Control, L1210 growth ([1]; FeCl3 12 μM): 104 % Control
- IC50 ([1]; Mus musculus): 7 µM
- anti-leukemic activity on inclusion of exogenous iron in the incubation media ([1]; ferric chloride added): fully attenuated
- IC50 [2, 10]: 32 µM
- % Control, Herpes replication ([2]; FeCl3 0 μM): 0 % Control
- % Control, Herpes replication ([2]; FeCl3 9 μM): 20 % Control
- % Control, Herpes replication ([2]; FeCl3 19 μM): 53 % Control
- % Control, Herpes replication ([2]; FeCl3 38 μM): 138 % Control
- anti-herpetic activity on inclusion of exogenous iron in the incubation media ([2]; ferric chloride added, herpes replication assay): fully attenuated
- IC50 [3, 9]: 1000 µM
- Gt ° (G° transfer) [5]: -0.04 K cal M-I
- logD at 12 h [5]: -0.0132
- IC50 (Plasmodium falciparum; [11]): 4.5 µM
- IC50 (Plasmodium falciparum; [12]): 3.7 µM
- growth of resting cell monolayers after treatment and replacement in drug-free media (CV-1 monkey kidney cells): identical to that of untreated cells
- IC50 (L1210 cells): 10 µM

Structure (SMILES): O=C(O)c1cccc(O)c1O [DHBA, 2,3-dihydroxybenzoic acid]
- anti-leukemic activity (in words) [1]: minimal activity
- IC50 ([1]; Mus musculus): 2800 µM
- IC50 [2, 8]: 1000 µM
- anti-herpetic activity (in words) [2]: minimal activity
- IC50 [3, 9]: 1000 µM
- Gt ° (G° transfer) [5]: +1.57 K cal M-I
- logD at 12 h [5]: -1.15

Structure (SMILES): Nc1nc(=O)n([C@@H]2O[C@H](CO)[C@@H](O)[C@@H]2F)cc1I [FIAC, 2-fluoro-5-iodo-I-B-D-arabinofuranosylcytosine]
- IC50 [7]: 0.6 µM

Structure (SMILES): O=C(NCCCCN(CCCNC(=O)c1cccc(O)c1O)C(=O)CCCNC(=O)c1cccc(O)c1O)c1cccc(O)c1O [GABA, N^1,N^8-bis(2,3-dihydroxybenzoyl)-N^4-(4-[2,3-dihydrozybenzamido]-butyryl) spermidine]
- IC50 ([1]; Mus musculus): 2 µM
- IC50 [2, 10]: 18 µM
- IC50 [3, 9]: 1000 µM
- IC50 (Plasmodium falciparum; [11]): 5.1 µM
- IC50 (Plasmodium falciparum; [12]): 4.3 µM

Structure (SMILES): C[C@@H](O)[C@H](N)C(=O)N(CCCCNC(=O)c1cccc(O)c1O)CCCNC(=O)c1cccc(O)c1O [N^1,N^8-bis(2,3-dihydroxybenzoyl)-N^4-threonyl-spermidine]
- IC50 [1]: 14 µM
- IC50 [2, 10]: 55 µM
- IC50 ([3]; estimated by methyl cellulose disk overlay assay, read-out: Antiviral Activity Vesicular stomatitis (IC50)): 1000 µM

Structure (SMILES): Nc1nc2c(ncn2COCCO)c(=O)[nH]1 [acyclovir]
- IC50 [7]: 40 µM
